# Measurements: publication PMC8413479 (Journal of molecular biology, 2021)
# Legend:
# [1] = tested on: SARS-CoV-2 Spike/ACE2; Spike-expressing U2OS cells fusing with ACE2-producing Calu-3 cells; assay type: cell-based, human cells; SARS-CoV-2 Spike
# [2] = tested on: SARS-CoV-2 Spike-pseudotyped viruses (HIV-based), H1299 cells; assay type: cell-based, SARS-CoV-2 Spike (HIV-based pseudovirus); human H1299 cells
# SARS-CoV-2 Spike protein [3] = test: Differential scanning fluorimetry; assay type: binding; details: 1 μM Spike, PBS, Sypro Orange
# SARS-CoV-2 Spike protein [4] = assay type: biochemical
# [5] = tested on: SARS-CoV-2 (USA-WA1/2020), Vero E6 cells; assay type: cell-based
# [6] = tested on: SARS-CoV-2 (USA-WA1/2020), Vero E6 cells
# [7] = tested on: SARS-CoV-2 Spike pseudovirus; details: cited from earlier work
# [8] = tested on: human angiotensin-converting enzyme 2 (ACE2 receptor); details: on enterocytes; cited from earlier work
# [9] = micromolar concentrations of defensin
molecule,measurement,setting,value
CC[C@H](C)[C@@H]1NC(=O)CNC(=O)[C@H](CCCCN)NC(=O)CNC(=O)[C@@H]2CSSC[C@H](NC1=O)C(=O)N[C@@H](CCCNC(=N)N)C(=O)N[C@H]1CSSC[C@H](NC(=O)[C@H](CCCNC(=N)N)NC(=O)[C@@H]3CSSC[C@H](NC(=O)[C@H]([C@@H](C)CC)NC1=O)C(=O)NCC(=O)N[C@@H](CCCNC(=N)N)C(=O)NCC(=O)N[C@@H]([C@@H](C)CC)C(=O)N3)C(=O)N[C@@H]([C@@H](C)CC)C(=O)N2 [RC-101],inhibition of syncytia formation,[1],strongly inhibited syncytia formation
same,effect of serum on inhibition of pseudovirus infection,[2],serum had a negative influence on the inhibitory ability
same,inhibition of infection after pre-incubation of pseudovirus,[2],significantly inhibited the infection
same,pseudovirus infection efficiency after pre-treatment of cells,[2],did not affect the pseudovirus infection efficiency
same,Spike destabilization relative to HNP1,SARS-CoV-2 Spike protein [3],less prominent than for HNP1
same,destabilization of Spike protein,SARS-CoV-2 Spike protein [3]; [9],destabilized
same,melting peak of Spike,SARS-CoV-2 Spike protein [3]; [9],loss of the melting peak at its normal position
same,aggregation and precipitation of Spike,SARS-CoV-2 Spike protein [4],partial aggregation and precipitation
same,SARS-CoV-2 infectivity,[5],strongly inhibited
same,inhibition of SARS-CoV-2 infection,[6],inhibited SARS-CoV-2 infection
same,IC50,"[6]; USA-WA1/2020), Vero E6 cells, 24 h",29 ± 7.6 µM
"HD5: enteric human α-defensin HD5 (peptide, UniProt Q01523 20-94, looked up, Defensin-5) Defensin alpha 5: ESLQERADEATTQKQSGEDNQDLAISFAGNGLSALRTSGSQARATCYCRTGRCATRESLSGVCEISGRLYRLCCR",SARS-CoV-2 Spike pseudovirus infection,[7],inhibition of SARS-CoV-2 Spike pseudovirus infection
same,binding to human ACE2,[8],binds to human angiotensin-converting enzyme 2
